Test results from patent US8598344B2, “CDKI pathway inhibitors and uses thereof” (Senex Biotechnology, priority 2009, dated 2013).

Tests used:
[1] = tested on: irradiated, senescent WI38 fibroblasts; experiment: Paracrine antiapoptotic activity of irradiated, senescent WI38 fibroblasts (survival of C8 cells in low serum); format: cell-based; conditions: C8 cell luciferase, 0.5% serum
Source text: As discussed by Roninson (Cancer Lett. 179, 1-14, 2002), all the treatments known to induce the production of tumor-promoting secreted factors by cancer-associated stromal fibroblasts activate the CDKI pathway, including exposure to ionizing radiation and the induction of senescence. Since this pathway is the target of compounds according to the invention, such compounds may be the first agents to target tumor-supporting activities of cancer-associated fibroblasts. Some of the fibroblast-activating treatments include exposure to ionizing radiation and the induction of senescence through various means (Krtolica et al., Proc. Natl. Acad. Sci. USA 98, 12072, 2001). We have adopted a 96-well assay for anti-apoptotic activity that we have previously used with p21-expressing fibrosarcoma cells (Chang et al., Proc. Natl. Acad. Sci. USA 97, 4291-4296, 2000), to measure a tumor-promoting activity of normal proliferating fibroblasts and fibroblasts exposed to ionizing radiation and consequently developing the senescent phenotype. In this assay, WI38 fibroblasts are irradiated with 10 Gy using an MDS Nordion Gammacell 40 irradiator, or left unirradiated. […] On day 7, cells are lysed and the amount of luciferase activity associated with C8 cells is determined. […]

CDK7 = CDK7 (Homo sapiens, UniProt P50613); experiment: KinomeScan competition binding assay; parameters: purchased KinomeScan, a division of Ambit Biosciences; conditions: 10 μM compound
Chain of CDK7 (P50613 whole entry): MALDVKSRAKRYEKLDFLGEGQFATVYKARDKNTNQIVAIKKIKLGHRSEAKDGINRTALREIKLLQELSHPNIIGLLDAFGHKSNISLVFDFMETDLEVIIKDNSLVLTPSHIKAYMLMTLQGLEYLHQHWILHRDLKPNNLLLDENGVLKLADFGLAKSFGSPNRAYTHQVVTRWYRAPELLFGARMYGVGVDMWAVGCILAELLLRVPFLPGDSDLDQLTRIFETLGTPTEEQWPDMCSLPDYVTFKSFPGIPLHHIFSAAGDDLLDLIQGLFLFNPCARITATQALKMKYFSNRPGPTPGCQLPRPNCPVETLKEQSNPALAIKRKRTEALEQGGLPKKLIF
Source text: This similarity led us to test SNX14 for the ability to inhibit 285 kinases, using the services of KinaseProfiler of Millipore Corporation (285 kinases). […] The KINOMEscan assay has been described in detail in Fabian et al., Nat. Biotechnol. 23: 329 (2005) and Karaman et al., Nat. Biotechnol. 26: 127 (2008).
The KinomeScan assay is based on a competition binding assay that quantitatively measures the ability of a compound to compete with an immobilized, ATP site directed ligand. The assay is performed by combining three components: DNA-tagged kinase; immobilized ligand; and a test compound. The ability of the test compound to compete with the immobilized ligand is measured via quantitative PCR of the DNA tag. […] The CDKs tested by Millipore for inhibition with SNX14 included CDK1, CDK2, CDK3, CDK5, CDK7 and CDK9; none of these were inhibited to less than 49 percent of control (POC) activity. The CDKs tested by KinomeScan for the effect of Compound 1 included CDK2, CDK3, CDK4, CDK5, CDK7, CDK8, CDK9 and CDK19; aside from CDK8 and CDK19, the strongest inhibited CDK was CDK7 (33% POC binding). […] We have also determined the binding constant (Kd) for SNX14, compound 1, compound 20, compound 26, compound 43 and compound 14 in kinase assays for CDK8 and CDK19 (Table 1).

HCT116 = experiment: Colon carcinoma cell proliferation, FACS count of live cells; format: cell-based, human; conditions: 72 hrs, 2.5, 5 or 10 μM
Procedure: Inhibition of β-catenin, which is positively regulated by CDK8, was reported to inhibit proliferation of some colon carcinoma cell lines (Firestein et al., 2008). We have therefore determined the ability of compound 1 to inhibit the proliferation of several colon carcinoma cell lines, including human DLD1, HCT116, SW480 and murine C26. This analysis waqs carried out by incubating cells for 72 hrs in the presence of 0, 2.5, 5 or 10 μM compound 1, followed by FACS measurement of the number of live cells, as defined by the lack of uptake of membrane-impermeable dye propidium iodide.

ROS1 = molecular target: T1, ROS1 (Homo sapiens, UniProt P08922); experiment: KinomeScan competition binding assay; conditions: 10 μM compound
T1 construct: purchased KinomeScan, a division of Ambit Biosciences
Procedure: (§1) The KINOMEscan assay has been described in detail in Fabian et al., Nat. Biotechnol. 23: 329 (2005) and Karaman et al., Nat. Biotechnol. 26: 127 (2008).
(§2) The KinomeScan assay is based on a competition binding assay that quantitatively measures the ability of a compound to compete with an immobilized, ATP site directed ligand. The assay is performed by combining three components: DNA-tagged kinase; immobilized ligand; and a test compound. The ability of the test compound to compete with the immobilized ligand is measured via quantitative PCR of the DNA tag.

PIM2 = molecular target: T2, PIM2 (Homo sapiens, UniProt Q9P1W9); experiment: KinomeScan competition binding assay; conditions: 10 μM compound
T2 construct: purchased KinomeScan, a division of Ambit Biosciences
T2 sequence (Q9P1W9 whole entry): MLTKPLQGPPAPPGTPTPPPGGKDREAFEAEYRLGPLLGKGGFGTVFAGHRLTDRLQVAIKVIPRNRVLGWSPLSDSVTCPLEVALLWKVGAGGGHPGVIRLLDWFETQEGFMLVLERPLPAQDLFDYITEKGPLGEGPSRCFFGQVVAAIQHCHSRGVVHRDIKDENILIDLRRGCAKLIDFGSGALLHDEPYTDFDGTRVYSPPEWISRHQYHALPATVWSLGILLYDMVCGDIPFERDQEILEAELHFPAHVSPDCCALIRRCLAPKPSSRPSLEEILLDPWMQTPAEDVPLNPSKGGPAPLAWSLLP
Procedure: as §1, §2

PRKG2 = molecular target: T3, PRKG2 (Homo sapiens, UniProt Q13237); experiment: KinomeScan competition binding assay; conditions: 10 μM compound
T3 construct: purchased KinomeScan, a division of Ambit Biosciences
Procedure: as §1, §2

ROCK1 = molecular target: T4, ROCK1 (Homo sapiens, UniProt Q13464); experiment: KinomeScan competition binding assay; conditions: 10 μM compound
T4 construct: purchased KinomeScan, a division of Ambit Biosciences
Procedure: as §1, §2

PKACa = molecular target: T5, PKACa (Homo sapiens, UniProt P17612); experiment: KinomeScan competition binding assay; conditions: 10 μM compound
T5 construct: purchased KinomeScan, a division of Ambit Biosciences
Procedure: as §1, §2

ROCK2 = molecular target: T6, ROCK2 (Homo sapiens, UniProt O75116); experiment: KinomeScan competition binding assay; conditions: 10 μM compound
T6 construct: purchased KinomeScan, a division of Ambit Biosciences
T6 sequence (O75116 whole entry): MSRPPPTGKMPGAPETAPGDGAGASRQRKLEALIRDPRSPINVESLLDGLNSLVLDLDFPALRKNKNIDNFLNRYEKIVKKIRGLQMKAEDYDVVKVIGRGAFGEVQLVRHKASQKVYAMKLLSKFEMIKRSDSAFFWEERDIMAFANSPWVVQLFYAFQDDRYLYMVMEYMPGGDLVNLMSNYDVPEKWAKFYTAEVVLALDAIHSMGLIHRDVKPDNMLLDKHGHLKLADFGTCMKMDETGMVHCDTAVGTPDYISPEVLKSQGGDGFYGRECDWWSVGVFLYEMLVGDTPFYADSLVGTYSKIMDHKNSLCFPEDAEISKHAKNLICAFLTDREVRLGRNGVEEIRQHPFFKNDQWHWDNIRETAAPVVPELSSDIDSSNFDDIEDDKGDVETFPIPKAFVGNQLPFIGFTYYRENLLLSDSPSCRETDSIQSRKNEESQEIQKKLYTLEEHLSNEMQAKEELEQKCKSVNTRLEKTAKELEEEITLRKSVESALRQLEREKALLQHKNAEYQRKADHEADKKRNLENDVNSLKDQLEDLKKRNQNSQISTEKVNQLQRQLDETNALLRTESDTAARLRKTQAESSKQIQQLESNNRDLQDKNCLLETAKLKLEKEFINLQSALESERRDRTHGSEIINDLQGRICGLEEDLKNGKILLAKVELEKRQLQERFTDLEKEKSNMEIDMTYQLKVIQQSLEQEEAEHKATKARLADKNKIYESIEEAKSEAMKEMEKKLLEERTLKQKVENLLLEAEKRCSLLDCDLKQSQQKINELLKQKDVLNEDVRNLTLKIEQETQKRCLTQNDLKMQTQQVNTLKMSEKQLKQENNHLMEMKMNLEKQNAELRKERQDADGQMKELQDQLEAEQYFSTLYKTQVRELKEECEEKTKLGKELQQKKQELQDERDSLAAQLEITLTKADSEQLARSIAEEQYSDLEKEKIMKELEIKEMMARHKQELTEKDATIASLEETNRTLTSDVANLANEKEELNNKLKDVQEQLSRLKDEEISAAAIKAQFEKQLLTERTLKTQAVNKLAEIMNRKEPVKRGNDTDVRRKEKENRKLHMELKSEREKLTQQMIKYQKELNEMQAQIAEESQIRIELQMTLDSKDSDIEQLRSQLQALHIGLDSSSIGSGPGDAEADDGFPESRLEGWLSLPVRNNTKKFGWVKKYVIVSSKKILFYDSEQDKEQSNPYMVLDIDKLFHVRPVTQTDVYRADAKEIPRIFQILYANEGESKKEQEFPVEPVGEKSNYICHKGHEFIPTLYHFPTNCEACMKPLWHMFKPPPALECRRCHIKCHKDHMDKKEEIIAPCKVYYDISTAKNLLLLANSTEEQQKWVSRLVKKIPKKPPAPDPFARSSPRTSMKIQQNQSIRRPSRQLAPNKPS
Procedure: as §1, §2

ALK = molecular target: T7, ALK (Homo sapiens, UniProt Q9UM73); experiment: KinomeScan competition binding assay; conditions: 10 μM compound
T7 construct: purchased KinomeScan, a division of Ambit Biosciences
Procedure: as §1, §2

RIOK2 = molecular target: T8, RIOK2 (Homo sapiens, UniProt Q9BVS4); experiment: KinomeScan competition binding assay; conditions: 10 μM compound
T8 construct: purchased KinomeScan, a division of Ambit Biosciences
T8 sequence (Q9BVS4 whole entry): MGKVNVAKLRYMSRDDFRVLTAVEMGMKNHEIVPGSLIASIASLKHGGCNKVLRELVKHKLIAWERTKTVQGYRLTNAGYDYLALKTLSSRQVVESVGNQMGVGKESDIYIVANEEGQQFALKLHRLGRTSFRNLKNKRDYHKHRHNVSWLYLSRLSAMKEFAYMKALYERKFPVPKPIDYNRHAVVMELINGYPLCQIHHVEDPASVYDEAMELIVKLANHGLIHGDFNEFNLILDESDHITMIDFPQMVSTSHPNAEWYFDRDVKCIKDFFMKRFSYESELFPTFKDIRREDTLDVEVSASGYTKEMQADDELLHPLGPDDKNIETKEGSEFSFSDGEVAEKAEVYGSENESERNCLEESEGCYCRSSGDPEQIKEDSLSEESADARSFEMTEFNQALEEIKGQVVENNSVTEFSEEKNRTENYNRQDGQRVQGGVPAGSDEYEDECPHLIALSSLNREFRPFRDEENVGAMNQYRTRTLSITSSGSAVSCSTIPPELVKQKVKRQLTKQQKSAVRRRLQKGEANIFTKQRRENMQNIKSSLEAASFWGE
Procedure: as §1, §2

MET = molecular target: T9, MET (Homo sapiens, UniProt P08581); experiment: KinomeScan competition binding assay; conditions: 10 μM compound
T9 construct: purchased KinomeScan, a division of Ambit Biosciences
T9 sequence (P08581 25-1390): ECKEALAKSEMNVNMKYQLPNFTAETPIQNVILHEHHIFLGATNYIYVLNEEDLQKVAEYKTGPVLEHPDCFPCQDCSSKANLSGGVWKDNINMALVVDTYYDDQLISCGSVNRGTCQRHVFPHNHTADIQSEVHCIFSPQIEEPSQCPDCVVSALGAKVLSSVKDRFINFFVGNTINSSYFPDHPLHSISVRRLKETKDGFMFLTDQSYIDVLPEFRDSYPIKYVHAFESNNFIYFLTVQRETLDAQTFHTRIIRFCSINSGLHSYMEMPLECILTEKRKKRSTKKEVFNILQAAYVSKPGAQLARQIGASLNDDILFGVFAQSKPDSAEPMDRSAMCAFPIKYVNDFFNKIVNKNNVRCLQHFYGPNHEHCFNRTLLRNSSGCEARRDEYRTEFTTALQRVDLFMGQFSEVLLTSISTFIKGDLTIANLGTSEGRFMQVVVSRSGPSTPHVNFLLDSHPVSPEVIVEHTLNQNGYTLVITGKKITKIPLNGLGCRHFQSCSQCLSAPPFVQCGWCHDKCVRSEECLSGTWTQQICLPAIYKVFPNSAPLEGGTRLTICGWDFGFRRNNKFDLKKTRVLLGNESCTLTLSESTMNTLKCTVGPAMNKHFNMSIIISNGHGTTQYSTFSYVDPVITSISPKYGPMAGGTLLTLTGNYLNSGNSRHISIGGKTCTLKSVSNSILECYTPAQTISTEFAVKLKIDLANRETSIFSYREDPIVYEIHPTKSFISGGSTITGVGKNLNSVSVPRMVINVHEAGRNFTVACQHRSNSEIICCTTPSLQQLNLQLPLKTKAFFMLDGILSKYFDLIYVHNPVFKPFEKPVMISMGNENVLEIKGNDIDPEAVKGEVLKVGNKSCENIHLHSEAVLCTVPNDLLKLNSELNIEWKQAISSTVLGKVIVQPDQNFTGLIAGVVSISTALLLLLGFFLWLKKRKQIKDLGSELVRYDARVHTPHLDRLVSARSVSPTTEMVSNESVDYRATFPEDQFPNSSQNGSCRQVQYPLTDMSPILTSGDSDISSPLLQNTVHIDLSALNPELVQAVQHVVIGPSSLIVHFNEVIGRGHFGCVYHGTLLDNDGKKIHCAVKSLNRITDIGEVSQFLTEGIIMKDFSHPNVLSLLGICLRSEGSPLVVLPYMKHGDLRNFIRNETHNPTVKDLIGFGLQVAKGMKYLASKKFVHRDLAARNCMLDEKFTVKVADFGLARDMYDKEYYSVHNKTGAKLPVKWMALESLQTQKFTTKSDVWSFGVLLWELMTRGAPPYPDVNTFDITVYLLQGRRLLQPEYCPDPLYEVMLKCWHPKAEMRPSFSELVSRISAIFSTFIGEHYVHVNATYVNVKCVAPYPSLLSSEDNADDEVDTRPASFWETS
Procedure: as §1, §2

PKACb = molecular target: T10, PKACb (Homo sapiens, UniProt P22694); experiment: KinomeScan competition binding assay; conditions: 10 μM compound
T10 construct: purchased KinomeScan, a division of Ambit Biosciences
Procedure: as §1, §2

LTK = molecular target: T11, LTK (Homo sapiens, UniProt P29376); experiment: KinomeScan competition binding assay; conditions: 10 μM compound
T11 construct: purchased KinomeScan, a division of Ambit Biosciences
T11 sequence (P29376 17-864): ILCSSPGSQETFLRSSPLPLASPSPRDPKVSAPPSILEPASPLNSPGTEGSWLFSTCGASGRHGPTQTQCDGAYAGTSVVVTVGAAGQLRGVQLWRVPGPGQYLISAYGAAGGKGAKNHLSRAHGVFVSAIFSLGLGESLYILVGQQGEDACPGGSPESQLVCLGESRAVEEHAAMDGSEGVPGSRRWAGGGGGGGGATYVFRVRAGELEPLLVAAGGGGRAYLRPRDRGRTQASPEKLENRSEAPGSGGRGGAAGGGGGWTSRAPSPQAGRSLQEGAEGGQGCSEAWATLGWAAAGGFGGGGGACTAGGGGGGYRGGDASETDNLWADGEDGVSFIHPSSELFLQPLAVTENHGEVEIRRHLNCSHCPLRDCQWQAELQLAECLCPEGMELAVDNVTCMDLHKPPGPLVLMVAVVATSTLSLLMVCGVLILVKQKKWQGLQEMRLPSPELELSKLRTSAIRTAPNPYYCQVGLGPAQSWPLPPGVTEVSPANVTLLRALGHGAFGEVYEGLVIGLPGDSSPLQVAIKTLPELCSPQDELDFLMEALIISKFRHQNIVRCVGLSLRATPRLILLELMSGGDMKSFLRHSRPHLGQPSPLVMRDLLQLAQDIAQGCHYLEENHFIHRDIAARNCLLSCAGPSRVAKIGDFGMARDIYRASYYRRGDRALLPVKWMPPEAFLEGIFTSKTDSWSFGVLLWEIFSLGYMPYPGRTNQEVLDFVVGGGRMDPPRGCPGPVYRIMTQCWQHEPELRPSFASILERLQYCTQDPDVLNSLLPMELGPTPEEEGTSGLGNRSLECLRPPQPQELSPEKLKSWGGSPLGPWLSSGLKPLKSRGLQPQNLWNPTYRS
Procedure: as §1, §2

N#Cc1ccc2ncnc(NCCc3ccccc3)c2c1 [compound 1]
decrease of paracrine tumor-promoting (antiapoptotic) effect of irradiated/senescent fibroblasts [1]: ~3 fold
POC binding, CDK7 (CDK7): 33 % POC
growth of colon carcinoma cell line (HCT116): inhibited the growth
POC binding, ROS1 (ROS1): 63 POC
POC binding, PIM2 (PIM2): 52 POC
POC binding, PRKG2 (PRKG2): 85 POC
POC binding, ROCK1 (ROCK1): 79 POC
POC binding, PKACa (PKACa): 82 POC
POC binding, ROCK2 (ROCK2): 89 POC
POC binding, ALK (ALK): 78 POC
POC binding, RIOK2 (RIOK2): 23 POC
POC binding, MET (MET): 86 POC
POC binding, PKACb (PKACb): 89 POC
POC binding, LTK (LTK): 100 POC
